Columns and labels:
Test in all cases: Differential Scanning Fluorimetry (DSF) Tm shift
Type in all cases: binding
[1] = target: T1, AKT3 Catalytic Domain (Homo sapiens, UniProt Q9Y243); conditions: 2 µM protein, 10 µM inhibitor, average of 3 experiments, each in duplicate
T1 construct: AKT3 (Q9Y243); CD; His-tag; made in house; host or cells: Escherichia coli

[2] = target: T2, CDK2 + Cyclin A (Homo sapiens, UniProt P24941); conditions: CDK2 + Cyclin A; 2 µM protein, 10 µM inhibitor; average of 3 experiments, each in duplicate
T2 construct: CDK2 (P24941); 1–299; His-tag; made in house; host or cells: Escherichia coli

[3] = target: T3, CDK2 + Cyclin E (Homo sapiens, UniProt P24941); conditions: CDK2 + Cyclin E; 2 µM protein, 10 µM inhibitor; average of 3 experiments, each in duplicate
T3 construct: CDK2 (P24941); 1–299; His-tag; made in house; host or cells: Escherichia coli

[4] = target: T4, CHK2 Catalytic Domain (Homo sapiens, UniProt O96017); conditions: 2 µM protein, 10 µM inhibitor, average of 3 experiments, each in duplicate
T4 construct: For all of them, we expressed and purified the catalytic domain separately; His-tag; made in house; host or cells: Escherichia coli
T4 sequence (O96017 220-486 limits assumed): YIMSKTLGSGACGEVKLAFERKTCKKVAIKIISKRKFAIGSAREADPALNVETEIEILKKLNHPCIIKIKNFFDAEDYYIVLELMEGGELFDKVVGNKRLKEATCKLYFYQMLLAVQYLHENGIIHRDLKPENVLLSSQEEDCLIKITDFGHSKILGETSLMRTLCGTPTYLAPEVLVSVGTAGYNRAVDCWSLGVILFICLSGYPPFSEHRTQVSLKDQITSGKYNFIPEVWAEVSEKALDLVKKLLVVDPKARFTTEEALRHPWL

[5] = target: T5, DMPK Catalytic Domain (Homo sapiens, UniProt Q09013); conditions: 2 µM protein, 10 µM inhibitor, average of 3 experiments, each in duplicate
T5 construct: For all of them, we expressed and purified the catalytic domain separately; His-tag; made in house; host or cells: Escherichia coli
T5 sequence (Q09013 71-339 limits assumed): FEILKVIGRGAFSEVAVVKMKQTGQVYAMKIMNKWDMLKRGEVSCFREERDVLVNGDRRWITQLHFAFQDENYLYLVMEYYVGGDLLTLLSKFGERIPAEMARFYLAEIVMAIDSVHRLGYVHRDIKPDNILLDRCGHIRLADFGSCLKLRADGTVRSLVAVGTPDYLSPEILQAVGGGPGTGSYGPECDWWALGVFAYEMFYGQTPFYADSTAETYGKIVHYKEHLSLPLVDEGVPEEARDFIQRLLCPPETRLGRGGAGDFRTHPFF

[6] = target: T6, FAK2 Catalytic Domain (Homo sapiens, UniProt Q14289); conditions: 2 µM protein, 10 µM inhibitor, average of 3 experiments, each in duplicate
T6 construct: For all of them, we expressed and purified the catalytic domain separately; His-tag; made in house; host or cells: Escherichia coli
T6 sequence (Q14289 425-683 limits assumed): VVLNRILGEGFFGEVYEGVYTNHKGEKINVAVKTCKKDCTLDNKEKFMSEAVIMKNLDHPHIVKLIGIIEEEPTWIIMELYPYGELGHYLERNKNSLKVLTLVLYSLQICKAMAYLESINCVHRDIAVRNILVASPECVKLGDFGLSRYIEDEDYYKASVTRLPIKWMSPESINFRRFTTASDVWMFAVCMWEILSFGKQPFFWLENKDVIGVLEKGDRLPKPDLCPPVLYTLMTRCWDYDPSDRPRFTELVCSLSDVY

[7] = target: T7, FES Catalytic Domain+SH2 (Homo sapiens, UniProt P07332); conditions: 2 µM protein, 10 µM inhibitor, average of 3 experiments, each in duplicate
T7 construct: for 8, we also made a longer version containing one or more additional domains; His-tag; made in house; host or cells: Escherichia coli
T7 sequence (P07332 448-822 limits assumed): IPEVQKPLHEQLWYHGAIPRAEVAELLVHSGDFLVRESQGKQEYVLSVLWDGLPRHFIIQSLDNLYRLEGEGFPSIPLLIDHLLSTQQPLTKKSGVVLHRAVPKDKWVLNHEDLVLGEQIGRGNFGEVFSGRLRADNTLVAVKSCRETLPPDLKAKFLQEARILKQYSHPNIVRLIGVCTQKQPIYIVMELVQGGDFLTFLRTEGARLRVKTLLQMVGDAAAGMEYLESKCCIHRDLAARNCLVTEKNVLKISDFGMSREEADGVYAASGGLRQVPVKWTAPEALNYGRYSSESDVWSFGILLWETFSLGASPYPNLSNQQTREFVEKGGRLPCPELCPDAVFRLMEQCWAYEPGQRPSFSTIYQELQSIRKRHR

[8] = target: T8, FES Catalytic Domain (Homo sapiens, UniProt P07332); conditions: 2 µM protein, 10 µM inhibitor, average of 3 experiments, each in duplicate
T8 construct: For all of them, we expressed and purified the catalytic domain separately; His-tag; made in house; host or cells: Escherichia coli
T8 sequence (P07332 561-822 limits assumed): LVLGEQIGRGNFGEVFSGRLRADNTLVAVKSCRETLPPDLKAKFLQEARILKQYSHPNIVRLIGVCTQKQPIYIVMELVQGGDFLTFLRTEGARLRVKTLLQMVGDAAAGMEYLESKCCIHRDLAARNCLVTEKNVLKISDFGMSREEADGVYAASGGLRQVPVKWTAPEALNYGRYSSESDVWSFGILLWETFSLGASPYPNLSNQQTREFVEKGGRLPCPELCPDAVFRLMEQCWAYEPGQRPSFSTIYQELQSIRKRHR

[9] = target: T9, PAK4 Catalytic Domain+PBD (Homo sapiens, UniProt O96013); conditions: 2 µM protein, 10 µM inhibitor, average of 3 experiments, each in duplicate
T9 construct: for 8, we also made a longer version containing one or more additional domains; His-tag; made in house; host or cells: Escherichia coli
T9 sequence (O96013 whole entry, the tested form may be a part): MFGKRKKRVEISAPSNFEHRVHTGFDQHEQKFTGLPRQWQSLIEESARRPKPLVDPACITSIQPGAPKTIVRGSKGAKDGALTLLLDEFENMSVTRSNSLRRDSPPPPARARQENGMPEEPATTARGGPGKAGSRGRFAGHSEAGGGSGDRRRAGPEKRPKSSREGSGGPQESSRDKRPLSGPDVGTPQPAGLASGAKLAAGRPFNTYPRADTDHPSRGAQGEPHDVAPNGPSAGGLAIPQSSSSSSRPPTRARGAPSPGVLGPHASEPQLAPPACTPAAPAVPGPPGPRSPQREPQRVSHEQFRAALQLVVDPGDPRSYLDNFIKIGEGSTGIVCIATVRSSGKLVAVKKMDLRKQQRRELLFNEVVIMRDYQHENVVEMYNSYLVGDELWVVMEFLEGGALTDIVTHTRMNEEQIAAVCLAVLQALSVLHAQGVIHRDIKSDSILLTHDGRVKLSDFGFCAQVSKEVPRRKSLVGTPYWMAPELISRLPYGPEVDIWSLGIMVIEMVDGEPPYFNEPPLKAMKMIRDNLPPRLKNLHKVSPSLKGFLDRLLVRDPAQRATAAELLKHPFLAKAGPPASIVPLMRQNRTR

[10] = target: T10, PAK4 Catalytic Domain (Homo sapiens, UniProt O96013); conditions: 2 µM protein, 10 µM inhibitor, average of 3 experiments, each in duplicate
T10 construct: For all of them, we expressed and purified the catalytic domain separately; His-tag; made in house; host or cells: Escherichia coli
T10 sequence (O96013 321-572 limits assumed): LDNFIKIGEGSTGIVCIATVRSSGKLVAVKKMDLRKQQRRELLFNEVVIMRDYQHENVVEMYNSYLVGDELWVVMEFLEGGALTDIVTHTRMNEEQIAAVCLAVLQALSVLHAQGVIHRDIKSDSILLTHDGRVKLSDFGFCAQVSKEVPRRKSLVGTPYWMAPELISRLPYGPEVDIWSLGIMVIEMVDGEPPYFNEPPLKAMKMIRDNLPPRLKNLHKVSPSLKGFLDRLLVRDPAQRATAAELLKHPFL

[11] = target: T11, PAK7 Catalytic Domain (Homo sapiens, UniProt Q9P286); conditions: 2 µM protein, 10 µM inhibitor, average of 3 experiments, each in duplicate
T11 construct: For all of them, we expressed and purified the catalytic domain separately; His-tag; made in house; host or cells: Escherichia coli
T11 sequence (Q9P286 449-700 limits assumed): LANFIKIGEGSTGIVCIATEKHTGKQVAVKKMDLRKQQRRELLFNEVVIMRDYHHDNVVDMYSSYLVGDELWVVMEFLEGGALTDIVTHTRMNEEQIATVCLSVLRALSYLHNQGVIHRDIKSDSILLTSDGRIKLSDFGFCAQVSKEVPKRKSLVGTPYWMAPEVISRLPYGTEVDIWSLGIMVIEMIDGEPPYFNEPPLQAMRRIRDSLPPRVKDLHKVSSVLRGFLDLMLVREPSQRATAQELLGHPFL

[12] = target: SRC Catalytic Domain+SH2+SH3 (Homo sapiens, UniProt P12931); conditions: 2 µM protein, 10 µM inhibitor, average of 3 experiments, each in duplicate
[13] = target: T12, STK3 Catalytic domain+SARAH (Homo sapiens, UniProt Q13188); conditions: 2 µM protein, 10 µM inhibitor, average of 3 experiments, each in duplicate
T12 construct: for 8, we also made a longer version containing one or more additional domains; His-tag; made in house; host or cells: Escherichia coli
T12 sequence (Q13188 1-491): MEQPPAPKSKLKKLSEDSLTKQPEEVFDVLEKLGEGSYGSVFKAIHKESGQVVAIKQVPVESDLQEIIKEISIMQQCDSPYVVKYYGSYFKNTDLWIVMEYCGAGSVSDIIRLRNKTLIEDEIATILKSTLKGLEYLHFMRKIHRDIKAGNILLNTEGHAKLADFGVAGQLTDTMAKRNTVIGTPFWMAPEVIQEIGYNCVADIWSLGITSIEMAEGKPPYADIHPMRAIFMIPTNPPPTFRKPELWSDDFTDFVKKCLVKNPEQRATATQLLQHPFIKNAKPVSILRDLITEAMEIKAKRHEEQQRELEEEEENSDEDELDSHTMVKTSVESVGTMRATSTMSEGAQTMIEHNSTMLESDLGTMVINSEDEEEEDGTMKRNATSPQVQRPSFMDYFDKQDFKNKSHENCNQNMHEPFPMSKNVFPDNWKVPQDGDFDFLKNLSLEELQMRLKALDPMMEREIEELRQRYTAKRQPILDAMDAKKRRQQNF

[14] = target: T13, STK3 Catalytic Domain (Homo sapiens, UniProt Q13188); conditions: 2 µM protein, 10 µM inhibitor, average of 3 experiments, each in duplicate
T13 construct: For all of them, we expressed and purified the catalytic domain separately; His-tag; made in house; host or cells: Escherichia coli
T13 sequence (Q13188 27-278 limits assumed): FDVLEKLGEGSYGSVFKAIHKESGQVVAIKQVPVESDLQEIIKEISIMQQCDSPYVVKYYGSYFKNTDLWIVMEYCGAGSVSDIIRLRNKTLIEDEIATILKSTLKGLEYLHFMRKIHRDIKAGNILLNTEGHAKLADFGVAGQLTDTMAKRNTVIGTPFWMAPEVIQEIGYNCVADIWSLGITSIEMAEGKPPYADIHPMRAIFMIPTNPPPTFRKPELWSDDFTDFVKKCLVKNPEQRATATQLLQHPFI

[15] = target: SRC Catalytic Domain (Homo sapiens, UniProt P12931); parameters: For all of them, we expressed and purified the catalytic domain separately; His-tag; made in house; host or cells: Escherichia coli; conditions: 2 µM protein, 10 µM inhibitor, average of 3 experiments, each in duplicate

T1 sequence (Q9Y243 122-479): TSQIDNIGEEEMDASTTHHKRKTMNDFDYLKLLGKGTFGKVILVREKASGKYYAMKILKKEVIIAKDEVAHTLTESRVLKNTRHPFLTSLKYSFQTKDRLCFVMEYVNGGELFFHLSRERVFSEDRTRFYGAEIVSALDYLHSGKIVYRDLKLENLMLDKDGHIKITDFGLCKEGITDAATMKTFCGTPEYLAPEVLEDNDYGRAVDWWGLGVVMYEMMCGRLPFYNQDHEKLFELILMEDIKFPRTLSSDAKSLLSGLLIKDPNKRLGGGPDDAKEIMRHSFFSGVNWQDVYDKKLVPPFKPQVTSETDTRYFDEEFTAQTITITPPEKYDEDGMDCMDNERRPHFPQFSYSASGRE

| Compound | Melting temperature (Tm) shift [1] [degrees Celcius] | Melting temperature (Tm) shift [2] [degrees Celcius] | Melting temperature (Tm) shift [3] [degrees Celcius] | Melting temperature (Tm) shift [4] [degrees Celcius] | Melting temperature (Tm) shift [5] [degrees Celcius] | Melting temperature (Tm) shift [6] [degrees Celcius] | Melting temperature (Tm) shift [7] [degrees Celcius] | Melting temperature (Tm) shift [8] [degrees Celcius] | Melting temperature (Tm) shift [9] [degrees Celcius] | Melting temperature (Tm) shift [10] [degrees Celcius] | Melting temperature (Tm) shift [11] [degrees Celcius] | Melting temperature (Tm) shift [12] [degrees Celcius] | Melting temperature (Tm) shift [13] [degrees Celcius] | Melting temperature (Tm) shift [14] [degrees Celcius] | Melting temperature (Tm) shift [15] [degrees Celcius] |
| --- | --- | --- | --- | --- | --- | --- | --- | --- | --- | --- | --- | --- | --- | --- | --- |
| c1cc(-c2cnn3cc(-c4ccc(OCCN5CCCCC5)cc4)cnc23)ccn1 [AMPK Inhibitor, Compound C] | 0.3 | 1.0 | 0.5 | 1.1 | 1.5 | 0.1 | 0.4 | 1.2 | 0.8 | 0.7 | 0.5 | 0.6 | 0.4 | 0.3 | 0.5 |
| CCCCc1c(-c2ccc(O)cc2)[nH]c2nccnc12 [Aloisine A, RP107, Aloisine A] | 0.1 | 2.5 | 1.4 | 2.7 | 1.4 | 1.2 | 0.5 | 0.9 | 1.3 | 1.3 | 1.2 | 1.1 | 1.4 | 1.6 | 1.5 |
| N#CCCc1ccc2c(c1)-c1[nH]c3ccc([N+](=O)[O-])cc3c1CC(=O)N2 [Alsterpaullone, 2-Cyanoethyl] | 0.1 | 0.5 | 0.5 | 1.9 | 3.4 | 0.6 | 0.3 | 1.3 | 0.3 | 0.9 | 1.3 | 0.3 | 1.5 | 1.7 | 0.2 |
| O=C1Cc2c([nH]c3ccc([N+](=O)[O-])cc23)-c2ccccc2N1 [Alsterpaullone] | 0.1 | 0.4 | 0.2 | 0.9 | 1.8 | 0.4 | 0.1 | 0.3 | 0.3 | 0.2 | 0.3 | 0.2 | 0.7 | 0.3 | 0.0 |
| O=C1NC(=O)C(c2c[nH]c3ccccc23)=C1c1c[nH]c2ccccc12 [Bisindolylmaleimide IV] | 0.0 | 0.9 | 0.7 | 4.1 | 2.7 | 0.1 | 0.9 | 0.5 | 0.0 | 0.4 | 0.1 | 0.0 | 2.0 | 0.9 | 0.3 |
| CN(C)CCCn1cc(C2=C(c3c[nH]c4ccccc34)C(=O)NC2=O)c2ccccc21 [Bisindolylmaleimide I] | 0.4 | 1.8 | 0.9 | 4.6 | 3.9 | 0.5 | 0.6 | 0.6 | 0.6 | 1.0 | 0.6 | 0.0 | 2.9 | 1.0 | 0.4 |
| CCCCn1c2ccc(O)cc2c2c3c(c(-c4ccccc4Cl)cc21)C(=O)NC3=O [Wee1 Inhibitor II] | 0.1 | 0.1 | 0.8 | 0.1 | 0.6 | 0.9 | 0.2 | 0.0 | 1.0 | 0.5 | 0.3 | 0.2 | 1.2 | – | 0.3 |
| Scytonemin [Scytonemin, Lyngbya sp.] | 0.0 | 0.3 | 0.8 | – | 0.3 | 0.2 | 0.2 | – | 0.7 | 0.6 | 0.0 | 0.3 | 0.4 | 0.5 | 0.0 |

From publication PMC4051630, “A Comparison of Protein Kinases Inhibitor Screening Methods Using Both Enzymatic Activity and Binding Affinity Determination” (PLoS ONE, 2014)
